Patent US20230146675A1, “PYRIMIDO[5,4-d]PYRIMIDINE DERIVATIVES AS ENT INHIBITORS FOR THE TREATMENT OF CANCERS, AND COMBINATION THEREOF WITH ADENOSINE RECEPTOR ANTAGONISTS” (ITEOS BELGIUM SA, priority 2020, published 2023)

Biological target: T1, human ENT1 (Homo sapiens, UniProt Q99808)
T1 sequence (Q99808 1-456): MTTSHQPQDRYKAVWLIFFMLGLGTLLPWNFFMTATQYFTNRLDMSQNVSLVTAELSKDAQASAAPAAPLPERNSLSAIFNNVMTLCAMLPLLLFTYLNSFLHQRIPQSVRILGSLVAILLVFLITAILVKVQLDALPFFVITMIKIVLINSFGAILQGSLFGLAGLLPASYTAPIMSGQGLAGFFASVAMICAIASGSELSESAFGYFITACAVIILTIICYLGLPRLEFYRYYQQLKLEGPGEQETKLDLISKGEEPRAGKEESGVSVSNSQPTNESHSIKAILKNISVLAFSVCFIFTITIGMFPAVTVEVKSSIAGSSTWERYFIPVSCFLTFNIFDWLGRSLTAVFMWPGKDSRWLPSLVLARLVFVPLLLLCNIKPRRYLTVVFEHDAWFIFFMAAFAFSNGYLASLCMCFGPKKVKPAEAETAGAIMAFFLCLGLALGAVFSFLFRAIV
Assay: ENT1 binding assay (competition with Sahenta-DY647 on JAR cells)
Set-up: JAR cells expressing ENT1 were bought from ATCC; host or cells: JAR cells
Conditions: binned IC50
Protocol: Purpose. […] By measuring the fluorescence at the end of the assay we could assess the binding potency of the compounds of the present invention.
JAR cells were resuspended in the described buffer. Compounds of the present invention and Sahenta-DY647 were diluted 200× in the described buffer.
The total volume of the reaction was 100 μL (50 μL of cells, 25 μL of the compounds of the present invention and 25 μL of Sahenta-DY647) in a 96 well plate, U-bottom (Greiner®, #650-180). The plates were washed 2× by centrifugation (4 min, 400 rcf at 4° C.) in the same buffer.

| SMILES | IC50 [nM] |
| --- | --- |
| COCCN(CCOC)c1nc(N2CCC(OC)CC2)c2nc(N(CCOC)CCOC)nc(NCc3cnn(C)c3)c2n1 [Compound 65, N2,N2,N6,N6-tetrakis(2-methoxyethyl)-8-(4-methoxypiperidin-1-yl)-N4-((1-methyl-1H-pyrazol-4-yl)methyl)pyrimido[5,4-d]pyrimidine-2,4,6-triamine] | 500 to 1000 |
| COCCN(CCOC)c1nc(N2CCn3ncnc3C2)c2nc(N(CCOC)CCOC)nc(N3CCn4ncnc4C3)c2n1 [Compound 9, 4,8-bis(5,6-dihydro-[1,2,4]triazolo[1,5-a]pyrazin-7(8H)-yl)-N2,N2,N6,N6-tetrakis(2-methoxyethyl)pyrimido[5,4-d]pyrimidine-2,6-diamine] | 100 to 500 |
| COCCN(CCOC)c1nc(N2CCC(OC)CC2)c2nc(N(CCOC)CCOC)nc(NCc3cnccn3)c2n1 [Compound 84, N2,N2,N6,N6-tetrakis(2-methoxyethyl)-8-(4-methoxypiperidin-1-yl)-N4-(pyrazin-2-ylmethyl)pyrimido[5,4-d]pyrimidine-2,4,6-triamine] | 500 to 1000 |
| COCCN(CCOC)c1nc(N2CCN(C)C(=O)C2)c2nc(N3CCn4nncc4C3)nc(N3CCC(OC)CC3)c2n1 [Compound 288, 4-(2-(bis(2-methoxyethyl)amino)-6-(6,7-dihydro-[1,2,3]triazolo[1,5-a]pyrazin-5(4H)-yl)-8-(4-methoxypiperidin-1-yl)pyrimido[5,4-d]pyrimidin-4-yl)-1-methylpiperazin-2-one] | 100 to 500 |
| COCCN(CCOC)c1nc(N2CCN(c3ncn(C)n3)CC2)c2nc(N(CCOC)CCOC)nc(NCc3cccc(S(N)(=O)=O)c3)c2n1 [Compound 228, 3-(((2,6-bis(bis(2-methoxyethyl)amino)-8-(4-(1-methyl-1H-1,2,4-triazol-3-yl)piperazin-1-yl)pyrimido[5,4-d]pyrimidin-4-yl)amino)methyl)benzenesulfonamide] | 100 to 500 |
| COCCN(CCOC)c1nc(N2CC(F)(F)C2)c2nc(N(CCOC)CCOC)nc(N3CCC(OC)CC3)c2n1 [Compound 105, 4-(3,3-difluoroazetidin-1-yl)-N2,N2,N6,N6-tetrakis(2-methoxyethyl)-8-(4-methoxypiperidin-1-yl)pyrimido[5,4-d]pyrimidine-2,6-diamine] | 100 to 500 |
| COCCCNc1nc(N(CCOC)CCOC)nc2c(N3CCC(OC)CC3)nc(N(CCOC)CCOC)nc12 [Compound 51, N2,N2,N6,N6-tetrakis(2-methoxyethyl)-8-(4-methoxypiperidin-1-yl)-N4-(3-methoxypropyl)pyrimido[5,4-d]pyrimidine-2,4,6-triamine] | 500 to 1000 |
| COCCN(CCOC)c1nc(N2CCC(OC)CC2)c2nc(N(CCOC)CCOC)nc(OCc3cccc(-c4noc(C)n4)c3)c2n1 [Compound 159, N2,N2,N6,N6-tetrakis(2-methoxyethyl)-4-(4-methoxypiperidin-1-yl)-8-((3-(5-methyl-1,2,4-oxadiazol-3-yl)benzyl)oxy)pyrimido[5,4-d]pyrimidine-2,6-diamine] | 100 to 500 |
| COCCN(CCOC)c1nc(N2CCC(OC)CC2)c2nc(N(CCOC)CCOC)nc(NCc3cccc(F)c3)c2n1 [Compound 142, N4-(3-fluorobenzyl)-N2,N2,N6,N6-tetrakis(2-methoxyethyl)-8-(4-methoxypiperidin-1-yl)pyrimido[5,4-d]pyrimidine-2,4,6-triamine] | < 100 |
| COCCN(CCOC)c1nc(N2CCC(OC)CC2)c2nc(N(CCOC)CCOC)nc(NCCCn3ccnc3)c2n1 [Compound 176, N4-(3-(1H-imidazol-1-yl)propyl)-N2,N2,N6,N6-tetrakis(2-methoxyethyl)-8-(4-methoxypiperidin-1-yl)pyrimido[5,4-d]pyrimidine-2,4,6-triamine] | 500 to 1000 |
| COCCN(CCOC)c1nc(N2CCC(OC)CC2)c2nc(N(CCOC)CCOC)nc(NCc3ccc(OC)c(OC)c3)c2n1 [Compound 170, N4-(3,4-dimethoxybenzyl)-N2,N2,N6,N6-tetrakis(2-methoxyethyl)-8-(4-methoxypiperidin-1-yl)pyrimido[5,4-d]pyrimidine-2,4,6-triamine] | < 100 |
| COCCN(CCOC)c1nc(N2CCn3ncnc3C2)c2nc(N(CCOC)CCOC)nc(N3CCS(=O)(=O)CC3)c2n1 [Compound 6, 4-(2,6-bis(bis(2-methoxyethyl)amino)-8-(5,6-dihydro-[1,2,4]triazolo[1,5-a]pyrazin-7(8H)-yl)pyrimido[5,4-d]pyrimidin-4-yl)thiomorpholine 1,1-dioxide] | 100 to 500 |
| COCCN(CCOC)c1nc(N(C)C2CCCC2)c2nc(N(CCOC)CCOC)nc(N3CCC(OC)CC3)c2n1 [Compound 166, N4-cyclopentyl-N2,N2,N6,N6-tetrakis(2-methoxyethyl)-8-(4-methoxypiperidin-1-yl)-N4-methylpyrimido[5,4-d]pyrimidine-2,4,6-triamine] | 100 to 500 |
| CCCN(CCC)c1nc(N(CCOC)CCOC)nc2c(N3CCC(OC)CC3)nc(N(CCOC)CCOC)nc12 [Compound 165, N2,N2,N6,N6-tetrakis(2-methoxyethyl)-8-(4-methoxypiperidin-1-yl)-N4,N4-dipropylpyrimido[5,4-d]pyrimidine-2,4,6-triamine] | < 100 |

Next, values leading:

| IC50 [nM] | SMILES |
| --- | --- |
| < 100 | COCCN(CCOC)c1nc(N2CCC(OC)CC2)c2nc(N(CCOC)CCOC)nc(OCc3cccc(Cl)c3)c2n1 [Compound 155, 4-((3-chlorobenzyl)oxy)-N2,N2,N6,N6-tetrakis(2-methoxyethyl)-8-(4-methoxypiperidin-1-yl)pyrimido[5,4-d]pyrimidine-2,6-diamine] |
| < 100 | COCCN(CCOC)c1nc(N2CCN(c3ncn(C)n3)CC2)c2nc(N(CCOC)CCOC)nc(NCc3cccc(OC)c3)c2n1 [Compound 222, N4-(3-methoxybenzyl)-N2,N2,N6,N6-tetrakis(2-methoxyethyl)-8-(4-(1-methyl-1H-1,2,4-triazol-3-yl)piperazin-1-yl)pyrimido[5,4-d]pyrimidine-2,4,6-triamine] |
| < 100 | COCCN(CCOC)c1nc(N2CCN(C)C(=O)C2)c2nc(N(CCOC)CCOC)nc(N(C)Cc3ccc(F)c(C#N)c3)c2n1 [Compound 238, 5-(((2,6-bis(bis(2-methoxyethyl)amino)-8-(4-methyl-3-oxopiperazin-1-yl)pyrimido[5,4-d]pyrimidin-4-yl)(methyl)amino)methyl)-2-fluorobenzonitrile] |
| < 100 | COCCN(CCOC)c1nc(N2CCc3cnn(C)c3C2)c2nc(N(CCOC)CCOC)nc(N3CCN(C)C(=O)C3)c2n1 [Compound 266, 4-(2,6-bis(bis(2-methoxyethyl)amino)-8-(1-methyl-1,4,5,7-tetrahydro-6H-pyrazolo[3,4-c]pyridin-6-yl)pyrimido[5,4-d]pyrimidin-4-yl)-1-methylpiperazin-2-one] |
| < 100 | COCCN(CCOC)c1nc(N2CC(O)(C(F)(F)F)C2)c2nc(N(CCOC)CCOC)nc(NCc3ccccc3)c2n1 [Compound 12, 1-(8-(benzylamino)-2,6-bis(bis(2-methoxyethyl)amino)pyrimido[5,4-d]pyrimidin-4-yl)-3-(trifluoromethyl)azetidin-3-ol] |
| < 100 | CCOCCN(CCOCC)c1nc(N2CCN(C)C(=O)C2)c2nc(N(CCOCC)CCOCC)nc(N3CCC(OC)CC3)c2n1 [Compound 199, 4-(2,6-bis(bis(2-ethoxyethyl)amino)-8-(4-methoxypiperidin-1-yl)pyrimido[5,4-d]pyrimidin-4-yl)-1-methylpiperazin-2-one] |
| < 100 | COCCN(CCOC)c1nc(N2CCC(OC)CC2)c2nc(N(CCOC)CCOC)nc(N(C)CC(C)C)c2n1 [Compound 168, N4-isobutyl-N2,N2,N6,N6-tetrakis(2-methoxyethyl)-8-(4-methoxypiperidin-1-yl)-N4-methylpyrimido[5,4-d]pyrimidine-2,4,6-triamine] |
| < 100 | COCCN(CCOC)c1nc(N2CCC(OC)CC2)c2nc(N(CCOC)CCOC)nc(N3CCCOCC3)c2n1 [Compound 79, N2,N2,N6,N6-tetrakis(2-methoxyethyl)-4-(4-methoxypiperidin-1-yl)-8-(1,4-oxazepan-4-yl)pyrimido[5,4-d]pyrimidine-2,6-diamine] |
| < 100 | COCCN(CCOC)c1nc(N2CCC(OC)CC2)c2nc(N(CCOC)CCOC)nc(NCc3ccc(F)c(Cl)c3)c2n1 [Compound 138, N4-(3-chloro-4-fluorobenzyl)-N2,N2,N6,N6-tetrakis(2-methoxyethyl)-8-(4-methoxypiperidin-1-yl)pyrimido[5,4-d]pyrimidine-2,4,6-triamine] |
| < 100 | COCCN(CCOC)c1nc(N2CCN(C)C(=O)C2)c2nc(N(CCOC)Cc3ccc(OC)c(OC)c3OC)nc(N3CCC(OC)CC3)c2n1 [Compound 303, 4-(2-(bis(2-methoxyethyl)amino)-6-((2-methoxyethyl)(2,3,4-trimethoxybenzyl)amino)-8-(4-methoxypiperidin-1-yl)pyrimido[5,4-d]pyrimidin-4-yl)-1-methylpiperazin-2-one] |
| < 100 | COCCN(CCOC)c1nc(N2CCn3nc(C)nc3C2)c2nc(N(CCOC)CCOC)nc(N3CCN(C)C(=O)C3)c2n1 [Compound 301, 4-(2,6-bis(bis(2-methoxyethyl)amino)-8-(2-methyl-5,6-dihydro-[1,2,4]triazolo[1,5-a]pyrazin-7(8H)-yl)pyrimido[5,4-d]pyrimidin-4-yl)-1-methylpiperazin-2-one] |
